Where “and” joins values, the source holds several entries; their conditions need not be identical. Equal values may be shown once. Calls of active or inactive are those of the source.
Experiments:
[1] = Dose-response inhibition of insulin secretion in a rat insulinoma line at 5 mM glucose (AID 1117331); format: functional, cell-based; settings: INS-1E
[2] = cells; format: functional, cell-based; settings: INS-1E
[3] = test system: Vero; test: host cell cytotoxicity of antiviral hits, dose response, cytotoxicity control for West Nile virus antiviral project, secondary assay (AID 1650); format: functional; settings: Chlorocebus sabaeus
[4] = test system: Vero; test: West Nile virus antiviral activity, cell-based, CPE readout (AID 1621); format: functional; settings: Chlorocebus sabaeus
[5] = A High Throughput Confirmatory Assay used to Identify Novel Compounds that Inhibit Mycobacterium Tuberculosis in the absence of Glycerol.; format: functional
[6] = M. tuberculosis growth inhibition, HTS (AID 449762); format: functional
[7] = P. falciparum Dd2 growth inhibitors, dose response, SYBR Green, dry powder samples, set 9 (AID 1159568); format: functional, cell-based
[8] = biological target: NADPH oxidase 1 (Homo sapiens, UniProt Q9Y5S8); test: Late-stage luminescence-based cell-based dose response assay to identify inhibitors of NADPH oxidase 1 (NOX1): Purchased analogs 2.; format: functional
[9] = half-maximal inhibitory concentration for glucagon-like peptide-1 release, STC-1 cell line, dose-response (AID 1117345); format: functional, cell-based
[10] = Glucagon-like peptide 1 release potency, NCI-H716 cell line, dose-response, half-maximal inhibitory concentration (AID 1117344); format: functional, cell-based
[11] = biological target: T1, Mucolipin-3 (Homo sapiens, UniProt Q8TDD5); test: TRPML3 agonist potency, dose response, cell-based, calcium fluorescence (AID 2510); format: functional
T1 sequence (Q8TDD5 whole entry): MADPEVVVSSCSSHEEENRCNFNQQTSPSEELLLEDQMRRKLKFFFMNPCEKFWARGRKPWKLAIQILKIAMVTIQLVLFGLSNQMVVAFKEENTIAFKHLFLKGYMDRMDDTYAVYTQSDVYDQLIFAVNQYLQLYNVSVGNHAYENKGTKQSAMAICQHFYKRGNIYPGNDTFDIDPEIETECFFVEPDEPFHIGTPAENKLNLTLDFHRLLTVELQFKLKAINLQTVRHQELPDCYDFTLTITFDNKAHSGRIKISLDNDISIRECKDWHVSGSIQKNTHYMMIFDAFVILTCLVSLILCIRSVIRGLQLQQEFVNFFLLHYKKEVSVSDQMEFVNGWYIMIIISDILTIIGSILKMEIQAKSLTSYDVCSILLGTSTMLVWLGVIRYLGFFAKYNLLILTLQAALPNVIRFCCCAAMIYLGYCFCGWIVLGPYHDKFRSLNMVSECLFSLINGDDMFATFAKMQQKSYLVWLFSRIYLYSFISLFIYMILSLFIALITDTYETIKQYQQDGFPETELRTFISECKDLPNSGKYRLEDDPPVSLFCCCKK

[12] = biological target: T1, Mucolipin-3; test: Dose response cell-based high-throughput screening assay for agonists of the transient receptor potential channel ML3 (TRPML3). [Related pubchem assays: 1526, 1424, 1448 ]; format: functional
[13] = biological target: T2, Ion channel NompC (Danio rerio, UniProt Q7T1G6); test: Late stage counterscreen for the probe development effort to identify selective agonists of the Transient Receptor Potential Channels 3 (TRPML3): fluorescence-based cell-based dose response assay for TRPN1 agonists.; format: functional
T2 sequence (Q7T1G6 whole entry): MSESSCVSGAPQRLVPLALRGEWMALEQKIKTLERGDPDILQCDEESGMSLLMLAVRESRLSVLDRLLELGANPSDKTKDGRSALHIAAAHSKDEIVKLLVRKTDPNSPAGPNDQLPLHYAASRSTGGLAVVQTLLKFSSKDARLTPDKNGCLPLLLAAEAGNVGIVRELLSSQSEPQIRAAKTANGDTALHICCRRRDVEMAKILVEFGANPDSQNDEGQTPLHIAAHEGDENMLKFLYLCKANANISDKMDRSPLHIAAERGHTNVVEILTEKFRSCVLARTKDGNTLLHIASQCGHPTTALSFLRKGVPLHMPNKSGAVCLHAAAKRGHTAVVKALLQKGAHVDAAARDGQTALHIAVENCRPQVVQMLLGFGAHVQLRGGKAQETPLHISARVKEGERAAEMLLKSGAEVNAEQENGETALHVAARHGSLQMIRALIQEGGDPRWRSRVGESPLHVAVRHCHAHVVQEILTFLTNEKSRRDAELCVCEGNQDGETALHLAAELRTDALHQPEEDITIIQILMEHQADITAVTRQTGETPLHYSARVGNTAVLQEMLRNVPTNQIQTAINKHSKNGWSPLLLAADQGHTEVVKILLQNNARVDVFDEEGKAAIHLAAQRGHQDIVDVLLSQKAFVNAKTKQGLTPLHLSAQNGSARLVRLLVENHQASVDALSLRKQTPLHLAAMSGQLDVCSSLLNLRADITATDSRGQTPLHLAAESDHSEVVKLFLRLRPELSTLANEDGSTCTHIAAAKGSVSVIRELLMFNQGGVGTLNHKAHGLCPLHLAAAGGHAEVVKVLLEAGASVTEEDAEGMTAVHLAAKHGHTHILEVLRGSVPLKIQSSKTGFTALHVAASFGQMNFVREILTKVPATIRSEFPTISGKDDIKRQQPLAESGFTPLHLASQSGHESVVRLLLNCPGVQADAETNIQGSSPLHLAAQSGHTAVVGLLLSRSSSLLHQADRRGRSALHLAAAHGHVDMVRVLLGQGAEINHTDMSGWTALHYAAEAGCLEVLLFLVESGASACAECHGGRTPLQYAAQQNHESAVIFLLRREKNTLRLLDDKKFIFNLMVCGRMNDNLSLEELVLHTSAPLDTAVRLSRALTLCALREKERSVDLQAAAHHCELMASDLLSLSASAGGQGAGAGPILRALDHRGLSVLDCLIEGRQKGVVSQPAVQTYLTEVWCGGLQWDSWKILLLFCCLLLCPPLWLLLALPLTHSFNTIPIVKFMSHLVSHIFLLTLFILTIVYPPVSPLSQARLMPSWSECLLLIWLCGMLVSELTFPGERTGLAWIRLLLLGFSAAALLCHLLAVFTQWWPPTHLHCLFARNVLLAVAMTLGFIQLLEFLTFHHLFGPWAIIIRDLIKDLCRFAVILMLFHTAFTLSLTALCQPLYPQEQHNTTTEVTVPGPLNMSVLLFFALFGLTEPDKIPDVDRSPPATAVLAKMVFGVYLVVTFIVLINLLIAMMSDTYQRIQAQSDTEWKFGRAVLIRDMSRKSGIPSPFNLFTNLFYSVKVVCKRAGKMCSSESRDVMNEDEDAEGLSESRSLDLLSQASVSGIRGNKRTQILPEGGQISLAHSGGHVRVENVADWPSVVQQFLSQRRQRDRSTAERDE

[14] = biological target: T2, Ion channel NompC; test: Fluorescence counterscreen assay for TRPML3 agonists: dose response cell-based high-throughput screening assay to identify agonists of the transient receptor potential channel N1 (TRPN1). [Related pubchem assays: 1526, 1424, 1448 ]; format: functional
[15] = biological target: Ubiquitin carboxyl-terminal hydrolase BAP1 (Homo sapiens, UniProt Q92560); test: BAP1 deubiquitinase inhibitors, dose response, biochemical (AID 714); format: functional
[16] = biological target: Prothrombin (Homo sapiens, UniProt P00734); test: Thrombin 1536 HTS Dose Response Confirmation. [Related pubchem assays: 1046 (Thrombin 1536 HTS; hits were confirmed in this assay)]; format: functional
[17] = biological target: Induced myeloid leukemia cell differentiation protein Mcl-1 (Homo sapiens, UniProt Q07820); format: functional
Sequence of Induced myeloid leukemia cell differentiation protein Mcl-1 (Q07820 whole entry): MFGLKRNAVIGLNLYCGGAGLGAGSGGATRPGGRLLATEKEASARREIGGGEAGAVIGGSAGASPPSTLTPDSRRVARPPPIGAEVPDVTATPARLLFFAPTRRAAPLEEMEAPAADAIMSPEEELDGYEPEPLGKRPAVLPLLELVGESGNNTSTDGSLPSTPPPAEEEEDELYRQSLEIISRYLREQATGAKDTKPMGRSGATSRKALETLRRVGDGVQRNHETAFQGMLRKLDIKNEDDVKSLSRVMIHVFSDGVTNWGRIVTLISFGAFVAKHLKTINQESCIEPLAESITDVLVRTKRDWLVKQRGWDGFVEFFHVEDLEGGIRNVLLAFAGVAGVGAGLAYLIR

[18] = biological target: Peroxisome proliferator-activated receptor gamma/Nuclear receptor corepressor 2 (Homo sapiens, UniProt P37231+Q9Y618); test: Counterscreen for NR2E3 inverse agonists: TR-FRET-based biochemical high throughput dose response assay to identify inverse agonists of the interaction between peroxisome proliferator-activated receptor gamma (PPARg) and nuclear receptor co-repressor 2 (NCOR2).; format: functional
[19] = biological target: Photoreceptor-specific nuclear receptor (Homo sapiens, UniProt Q9Y5X4); test: NR2E3 inverse agonists, dose response, biochemical, TR-FRET (AID 463256); format: functional
Sequence of Photoreceptor-specific nuclear receptor (Q9Y5X4 whole entry): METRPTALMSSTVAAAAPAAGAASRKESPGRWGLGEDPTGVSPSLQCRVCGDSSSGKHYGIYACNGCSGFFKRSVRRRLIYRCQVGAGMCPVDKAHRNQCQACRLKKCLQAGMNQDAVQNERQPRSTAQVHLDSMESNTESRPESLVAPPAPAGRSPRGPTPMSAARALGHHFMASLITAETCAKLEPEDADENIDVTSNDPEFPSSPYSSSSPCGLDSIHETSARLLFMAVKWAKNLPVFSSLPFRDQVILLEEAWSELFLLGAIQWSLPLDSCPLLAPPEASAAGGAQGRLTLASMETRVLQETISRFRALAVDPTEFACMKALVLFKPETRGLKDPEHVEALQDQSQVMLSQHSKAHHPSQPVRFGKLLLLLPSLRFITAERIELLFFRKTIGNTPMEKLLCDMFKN

[20] = biological target: Ephrin type-A receptor 4 (Mus musculus, UniProt Q03137); test: inhibitors of EphA4 binding to KYL peptide, primary screen, biochemical, colorimetric, mouse EphA4 (AID 689); format: functional
Sequence of Ephrin type-A receptor 4 (Q03137 whole entry): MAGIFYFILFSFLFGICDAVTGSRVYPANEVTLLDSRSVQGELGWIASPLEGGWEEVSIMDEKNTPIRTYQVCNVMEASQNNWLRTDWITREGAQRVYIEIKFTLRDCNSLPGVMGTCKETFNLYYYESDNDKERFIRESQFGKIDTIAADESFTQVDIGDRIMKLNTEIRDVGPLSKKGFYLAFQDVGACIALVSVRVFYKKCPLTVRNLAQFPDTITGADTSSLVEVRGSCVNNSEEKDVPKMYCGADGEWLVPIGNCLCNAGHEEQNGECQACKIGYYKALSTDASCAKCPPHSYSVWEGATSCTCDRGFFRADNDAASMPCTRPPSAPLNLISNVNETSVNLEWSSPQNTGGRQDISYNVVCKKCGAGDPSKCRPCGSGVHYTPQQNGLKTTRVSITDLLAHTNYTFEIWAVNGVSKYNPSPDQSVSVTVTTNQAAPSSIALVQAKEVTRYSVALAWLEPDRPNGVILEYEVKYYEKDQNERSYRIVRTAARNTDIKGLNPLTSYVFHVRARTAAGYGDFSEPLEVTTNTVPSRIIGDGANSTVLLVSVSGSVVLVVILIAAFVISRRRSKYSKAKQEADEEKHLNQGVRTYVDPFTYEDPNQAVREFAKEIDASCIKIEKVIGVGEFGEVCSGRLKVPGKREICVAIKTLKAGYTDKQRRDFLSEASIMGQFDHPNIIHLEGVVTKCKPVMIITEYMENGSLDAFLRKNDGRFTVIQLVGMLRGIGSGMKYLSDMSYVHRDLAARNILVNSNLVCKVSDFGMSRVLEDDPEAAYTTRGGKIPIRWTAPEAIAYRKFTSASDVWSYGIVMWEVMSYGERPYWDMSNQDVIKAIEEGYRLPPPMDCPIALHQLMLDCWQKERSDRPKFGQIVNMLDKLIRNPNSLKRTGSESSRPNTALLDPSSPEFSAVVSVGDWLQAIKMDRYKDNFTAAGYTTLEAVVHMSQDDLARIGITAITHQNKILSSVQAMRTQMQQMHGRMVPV

[21] = biological target: Cytochrome P450 2C19 (Homo sapiens, UniProt P33261); test: Cytochrome panel assay with activity outcomes. Panel member name: p450-cyp2c19 Compounds with AC50 equal or less than 10 uM are considered active; format: functional
[22] = biological target: UDP-galactopyranose mutase (Mycobacterium tuberculosis, UniProt P9WIQ1); test: Inhibitors of Mycobacterium tuberculosis UDP-galactopyranose mutase (UGM) enzyme Measured in Biochemical System Using Plate Reader - 2105-02_Inhibitor_Dose_CherryPick_Activity. [Related pubchem assays (depositor defined):AID504439]
Sequence of UDP-galactopyranose mutase (P9WIQ1 whole entry): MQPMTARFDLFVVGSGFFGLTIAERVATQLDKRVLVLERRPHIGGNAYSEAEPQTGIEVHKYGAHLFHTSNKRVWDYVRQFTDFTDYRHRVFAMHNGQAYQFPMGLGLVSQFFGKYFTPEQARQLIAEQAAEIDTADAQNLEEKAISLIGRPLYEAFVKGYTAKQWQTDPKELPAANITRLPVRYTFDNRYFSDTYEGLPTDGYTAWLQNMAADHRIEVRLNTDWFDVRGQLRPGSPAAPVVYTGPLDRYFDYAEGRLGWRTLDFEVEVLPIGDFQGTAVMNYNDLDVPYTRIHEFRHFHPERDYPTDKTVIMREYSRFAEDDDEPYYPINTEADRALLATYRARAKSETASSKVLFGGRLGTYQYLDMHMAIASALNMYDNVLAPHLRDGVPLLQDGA

[23] = biological target: Delta-type opioid receptor (Homo sapiens, UniProt P41143); test: Counterscreen for agonists of heterodimerization of the mu 1 (OPRM1) and delta 1 (OPRD1) opioid receptors: Luminescence-based cell-based high throughput dose response assay to identify agonists of OPRD1 homodimerization. [Related pubchem assays (depositor defined):AID504326, AID504355, AID504692, AID504904, AID504905]; format: functional
Sequence of Delta-type opioid receptor (P41143 whole entry): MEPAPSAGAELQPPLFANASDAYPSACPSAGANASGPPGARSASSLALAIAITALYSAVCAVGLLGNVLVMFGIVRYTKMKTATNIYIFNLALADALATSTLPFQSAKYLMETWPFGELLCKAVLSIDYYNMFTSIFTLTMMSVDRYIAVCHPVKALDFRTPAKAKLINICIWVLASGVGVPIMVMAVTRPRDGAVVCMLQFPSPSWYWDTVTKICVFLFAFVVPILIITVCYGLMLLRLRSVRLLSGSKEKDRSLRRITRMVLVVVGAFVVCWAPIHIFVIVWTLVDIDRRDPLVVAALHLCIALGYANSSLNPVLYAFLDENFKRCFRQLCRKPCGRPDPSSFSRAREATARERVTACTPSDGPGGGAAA

[24] = biological target: Mu-type opioid receptor (Homo sapiens, UniProt P35372); test: Counterscreen for agonists of heterodimerization of the mu 1 (OPRM1) and delta 1 (OPRD1) opioid receptors: Luminescence-based cell-based high throughput dose response assay to identify agonists of OPRM1 homodimerization.; format: functional;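 further: U2OS cells expressing OPRM1 and beta-arrestin as split beta-galactosidase partners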
Sequence of Mu-type opioid receptor (P35372 whole entry): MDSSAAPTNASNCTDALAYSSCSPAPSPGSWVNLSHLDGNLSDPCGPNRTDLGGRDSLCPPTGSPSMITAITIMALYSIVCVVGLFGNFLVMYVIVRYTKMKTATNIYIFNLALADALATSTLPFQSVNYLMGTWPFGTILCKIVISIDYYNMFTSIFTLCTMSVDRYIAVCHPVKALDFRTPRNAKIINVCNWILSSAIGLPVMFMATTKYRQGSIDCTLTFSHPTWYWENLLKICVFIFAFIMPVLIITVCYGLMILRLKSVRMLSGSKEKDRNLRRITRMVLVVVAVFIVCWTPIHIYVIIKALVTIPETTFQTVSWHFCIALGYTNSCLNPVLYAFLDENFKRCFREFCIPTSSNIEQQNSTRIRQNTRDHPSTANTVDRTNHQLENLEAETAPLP

[25] = biological target: 5-hydroxytryptamine receptor 5A (Homo sapiens, UniProt P47898); test: Counterscreen for agonists of OPRM1-OPRD1 heterodimerization: luminescence-based cell-based high throughput dose response assay to identify agonists of 5-hydroxytryptamine (serotonin) 5A receptor (HTR5A). [Related pubchem assays (depositor defined):AID504326, AID504355, AID504692, AID504904, AID504905]; format: functional
Sequence of 5-hydroxytryptamine receptor 5A (P47898 whole entry): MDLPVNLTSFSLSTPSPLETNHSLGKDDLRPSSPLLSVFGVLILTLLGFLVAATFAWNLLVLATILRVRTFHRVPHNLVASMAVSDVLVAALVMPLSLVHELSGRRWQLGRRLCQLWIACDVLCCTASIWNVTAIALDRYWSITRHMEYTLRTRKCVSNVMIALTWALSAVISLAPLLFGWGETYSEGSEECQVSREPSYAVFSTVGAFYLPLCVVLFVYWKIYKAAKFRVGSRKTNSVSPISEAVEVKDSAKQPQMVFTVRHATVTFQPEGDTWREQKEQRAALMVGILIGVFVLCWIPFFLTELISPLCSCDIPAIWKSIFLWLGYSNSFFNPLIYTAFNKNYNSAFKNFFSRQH

[26] = HeLa 2N DNA content increase, dose response, cell-based, IC50 (AID 1117349); format: functional
[27] = Concentration-dependent survival of SW480 colon cancer line, luminescence detection with CellTiter-Glo, half-maximal inhibitory concentration (AID 1117338); format: functional
[28] = RKO cell viability reduction, dose response, CellTiter-Glo luminescence (AID 1117322); format: functional
[29] = cytotoxicity toward HCT116 cells – cell-based, CellTiter-Glo luminescence, IC50, dose response (AID 1117332); format: functional; settings: HCT-116
[30] = SNU-C1 cell viability reduction, dose response, CellTiter-Glo luminescence (AID 1117323); format: functional, cell-based
[31] = cytotoxicity toward Colo320 cells – cell-based, CellTiter-Glo luminescence, IC50, dose response (AID 1117334); format: functional; settings: COLO 320
[32] = HeLa 4N DNA content increase, dose response, cell-based, IC50 (AID 1117351); format: functional
[33] = cytotoxicity toward HT-29 cells – cell-based, CellTiter-Glo luminescence, IC50, dose response (AID 1117330); format: functional
[34] = CellTiter-Glo luminescent dose response of DLD-1 viability loss (AID 1117352); format: functional
[35] = HCT116 cell viability decrease, GSK3B pretreatment – CellTiter-Glo, IC50, dose response (AID 1117339); format: functional; settings: HCT-116
[36] = biological target: 14-3-3 protein gamma (Homo sapiens, UniProt P61981); test: modulators of 14-3-3 gamma client binding – dose response (AID 711); format: functional

## Oc1ccc(CCNCCCCCCNCCc2ccccc2)cc1O [DOPEXAMINE]
[1]
  IC50: > 33.3 µM (inactive)
[2]
  IC50: > 33.3 µM (inactive)

## CC(C)c1cc(C(C)C)c(S(=O)(=O)N2c3ccccc3[C@]3(Br)C[C@H]4C(=O)N[C@@H](Cc5ccccc5)C(=O)N4[C@H]23)c(C(C)C)c1
[3]
  CC50: 13.7 µM (active)
[4]
  IC50: 39.9 µM (active)

## CCCOc1cccc(C(=O)NC(=S)Nc2ccc(N3CCN(C)CC3)cc2)c1
[5]
  IC50: > 100 µM (active)
[6]
  IC50: > 100 µM (active)

## Cc1ccccc1-c1ccc([C@@H]2[C@H](CO)N3CCCCN(S(=O)(=O)Cc4ccccc4)C[C@@H]23)cc1
[7]
  AC50: 0.878 µM (active)

## O=[N+]([O-])c1ccc(/C=N/Nc2c(Cl)cc(Cl)cc2Cl)cc1
[8]
  IC50: > 17 µM (not active)

## NC[C@@H]1O[C@H](O[C@H]2[C@H](O)[C@H](O[C@H]3[C@@H](O)[C@H](N)C[C@H](N)[C@H]3O[C@H]3O[C@H](CN)[C@H](O)[C@H](O)[C@H]3N)O[C@@H]2CO)[C@@H](N)[C@@H](O)[C@@H]1O
[9]
  IC50: > 40 µM (inactive)
[10]
  IC50: > 40 µM (inactive)

## Cc1ccc(S(=O)(=O)n2nccc2-c2c(-c3ccccc3)noc2C)cc1
[11]
  EC50: 1.01 µM (active)
[12]
  EC50: 0.819 µM (active)
[13]
  EC50: > 29.9 µM (not active)
[14]
  EC50: > 29.9 µM (not active)

## Nc1c(C(O)(C(F)(F)F)C(F)(F)F)ccc2ccccc12
[15]
  IC50: > 50 µM (not active)

## O=[N+]([O-])c1ccc(-c2cc(O)n3nc(-c4ccc(Cl)cc4)cc3n2)cc1
[16]
  IC50: > 50 µM (not active)
[17]
  IC50: 1.72 µM (active)

## COc1ccc(-c2oc3ncn4nc(Cc5ccccc5)nc4c3c2-c2ccc(OC)cc2)cc1
[18]
  IC50: 6.02 µM (active)
[19]
  IC50: 7.69 µM (active)

## CCCCn1nc(-c2ccccc2)c2nc3ccccc3nc21
[20]
  IC50: 13.1 µM (active)
[21]
  AC50: inconclusive
[22]
  AC50: 41.9 µM (active)

## CCC(COC(=O)c1cc(OC)c(OC)c(OC)c1)(c1ccccc1)N(C)C (stereo unspecified)
[23]
  EC50: > 92.5 µM (inactive) and 65.1 µM (inactive)
[24]
  EC50: > 92.5 µM (inactive)
[25]
  EC50: > 92.5 µM (inactive)
[26]
  IC50: > 10 µM (inactive)
[27]
  IC50: > 20 µM (inactive)
[28]
  IC50: 0.142 µM (active)
[29]
  IC50: > 20 µM (inactive)
[30]
  IC50: 2.45 µM (active)
[31]
  IC50: > 20 µM (inactive)
[32]
  IC50: > 10 µM (inactive)
[33]
  IC50: > 20 µM (inactive)
[34]
  IC50: > 20 µM (inactive)
[35]
  IC50: 1.61 µM (active)

## COCCNC(=O)C(c1ccncc1)N(C(=O)Cn1nnc2ccccc21)c1ccc(OC)cc1 (stereo unspecified)
[36]
  IC50: 24.6 µM (active)
